Results as given in ChEMBL document CHEMBL1129407, “Synthesis and evaluation of heterocyclic carboxamides as potential antipsychotic agents” (J Med Chem, 1996).

Legend:
[1] = system: Mus musculus; assay: Compound was tested for antagonist activity against apomorphine-induced mouse climbing(per orally - po). using in vivo method; assay type: functional
[2] = system: Mus musculus; assay: Compound was tested for antagonist activity against apomorphine-induced mouse climbing(intraperitoneally - ip). using in vivo method; assay type: functional
[3] = target: T1, D(2) dopamine receptor (Mus musculus, UniProt P61168); assay: Inhibition of mouse Dopamine receptor D2
[4] = system: Mus musculus; assay: Compound was tested for antagonist activity against apomorphine-induced mouse stereotypy(per orally - po). using in vivo method; assay type: functional
[5] = target: T2, 5-hydroxytryptamine receptor 1A (Mus musculus, UniProt Q64264); assay: Inhibitory activity against serotonin 5-hydroxytryptamine 1A receptor from mice.
T2 sequence (Q64264 whole entry): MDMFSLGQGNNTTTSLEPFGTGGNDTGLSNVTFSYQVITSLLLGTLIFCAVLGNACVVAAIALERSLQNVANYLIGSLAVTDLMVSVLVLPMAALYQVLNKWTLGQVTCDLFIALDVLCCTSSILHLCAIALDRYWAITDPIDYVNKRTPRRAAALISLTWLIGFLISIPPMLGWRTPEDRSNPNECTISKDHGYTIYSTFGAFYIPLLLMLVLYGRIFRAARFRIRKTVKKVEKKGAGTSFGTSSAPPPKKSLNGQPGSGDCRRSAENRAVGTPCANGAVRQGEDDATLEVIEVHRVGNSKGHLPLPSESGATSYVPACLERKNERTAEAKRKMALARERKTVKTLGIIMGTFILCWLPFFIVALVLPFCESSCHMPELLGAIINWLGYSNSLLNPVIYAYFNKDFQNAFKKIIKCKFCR

[6] = species: Mus musculus; assay: Compound was tested for induction of catalepsy in mouse.; assay type: functional
[7] = target: Serotonin 2 (5-HT2) receptor (Mus musculus, UniProt Q02152+P34968+P35363); assay: Inhibitory activity against serotonin 5-hydroxytryptamine 2 receptor from mice.; assay type: protein assay
[8] = system: Mus musculus; assay: Compound was tested for antagonist activity against apomorphine-induced mouse climbing (ip). using in vivo method; assay type: functional
[9] = system: Mus musculus; assay: Compound was tested for antagonist activity against apomorphine-induced mouse climbing (po). using in vivo method; assay type: functional
[10] = target: T1, D(2) dopamine receptor; assay: Inhibitory activity against Dopamine receptor D2 from mice
[11] = species: Mus musculus; assay: Compound was tested for induction of catalepsy in mouse; assay type: functional
[12] = system: Mus musculus; assay: Compound was tested for antagonist activity against apomorphine-induced mouse stereotypy (po) using in vivo method; assay type: functional
[13] = Ratio of ED50 for induction of catalepsy to ED50 for antagonism of apomorphine-induced climbing.; assay type: functional
[14] = Ratio of ED50 for antagonism of apomorphine induced stereotypy to ED50 for antagonism of apomorphine-induced climbing.; assay type: functional
[15] = system: Mus musculus; assay: Compound was tested for antagonist activity against apomorphine-induced mouse climbing (ip) using in vivo method; assay type: functional
[16] = system: Mus musculus; assay: Compound was tested for antagonist activity against apomorphine-induced mouse climbing (po) using in vivo method; assay type: functional

T1 sequence (P61168 whole entry): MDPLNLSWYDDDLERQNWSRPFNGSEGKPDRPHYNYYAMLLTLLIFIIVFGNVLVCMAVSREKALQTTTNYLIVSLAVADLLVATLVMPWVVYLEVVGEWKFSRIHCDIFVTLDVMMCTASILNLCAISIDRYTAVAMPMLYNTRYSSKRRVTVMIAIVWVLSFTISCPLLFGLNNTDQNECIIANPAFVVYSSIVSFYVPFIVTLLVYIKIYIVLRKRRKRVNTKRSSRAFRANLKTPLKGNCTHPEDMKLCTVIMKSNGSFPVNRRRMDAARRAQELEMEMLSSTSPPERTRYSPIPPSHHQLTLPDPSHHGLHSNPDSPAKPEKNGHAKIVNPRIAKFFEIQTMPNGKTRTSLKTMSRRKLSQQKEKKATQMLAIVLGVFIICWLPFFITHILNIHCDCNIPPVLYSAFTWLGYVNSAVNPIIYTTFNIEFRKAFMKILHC

SMILES	IC50 [3]	IC50 [5]	IC50 [7]	ED50 [8]	ED50 [9]	IC50 [10]	other results
Cc1nc2n(c(=O)c1CCN1CCC(c3noc4cc(F)ccc34)CC1)CCCC2 [RISPERIDONE]	23 nM	430 nM					ED50 [1]: 0.9 mg/kg; ED50 [2]: 0.3 mg/kg; ED50 [4]: 3.2 mg/kg; ED50 [6]: 1.4 mg/kg
O=C(NCCCCN1CCN(c2nsc3ccccc23)CC1)c1cccnc1	47 nM	4.9 nM	2.9 nM	5.2 mg/kg	15.5 mg/kg		
O=C(NCCCCN1CCN(c2nsc3ccccc23)CC1)c1cccc2c1NCC2	34 nM	4.3 nM	3.4 nM	2.6 mg/kg	18.6 mg/kg		
O=C(NCCCCN1CCN(c2nsc3ccccc23)CC1)c1ccccn1	24 nM	2.8 nM	1.5 nM				ED50 [1]: 16.6 mg/kg; ED50 [2]: < 25 mg/kg
Nc1ncccc1C(=O)NCCCCN1CCN(c2nsc3ccccc23)CC1	7.8 nM	3.3 nM	1.5 nM	6.4 mg/kg	17.1 mg/kg		
O=C(NCCCCN1CCN(c2nsc3ccccc23)CC1)c1cccc2cc[nH]c12	28 nM	2.7 nM	1.2 nM				
Nc1c(C(=O)NCCCCN2CCN(c3nsc4ccccc34)CC2)sc2ccccc12	5.8 nM	5.8 nM	0.85 nM	2.2 mg/kg	51.6 mg/kg		
O=C(NCCCCN1CCN(c2nsc3ccccc23)CC1)c1cccc2cccnc12		4.3 nM	2.4 nM	< 25 mg/kg	54.4 mg/kg	14 nM	
Nc1ccncc1C(=O)NCCCCN1CCN(c2nsc3ccccc23)CC1		5.1 nM	3.1 nM	> 25 mg/kg		4.7 nM	
Nc1ccsc1C(=O)NCCCCN1CCN(c2nsc3ccccc23)CC1	9.6 nM	1.3 nM	1.3 nM	0.9 mg/kg	9.7 mg/kg		ED50 [11]: 69.3 mg/kg; ED50 [12]: 57.9 mg/kg; Ratio [13]: 7; Ratio [14]: 6
O=C(NCCCCN1CCN(c2nsc3ccccc23)CC1)c1cccc2c1NCCC2	28 nM	1.9 nM	2.4 nM	< 25 mg/kg			
Nc1cnccc1C(=O)NCCCCN1CCN(c2nsc3ccccc23)CC1		7 nM	1.5 nM				
Nc1cscc1C(=O)NCCCCN1CCN(c2nsc3ccccc23)CC1	6 nM	3.5 nM	2.5 nM	1.7 mg/kg	12.6 mg/kg		
O=C(NCCCCN1CCN(c2nsc3ccccc23)CC1)c1c[nH]c2ccccc12		5.8 nM	1.3 nM	> 25 mg/kg		14 nM	
O=C(NCCCCN1CCN(c2nsc3ccccc23)CC1)c1ccncc1		6.6 nM	2.3 nM			25 nM	ED50 [15]: 4.6 mg/kg; ED50 [16]: 34 mg/kg
Nc1sccc1C(=O)NCCCCN1CCN(c2nsc3ccccc23)CC1		2 nM	2.3 nM	4.8 mg/kg	> 25 mg/kg	11 nM	
O=C(NCCCCN1CCN(c2nsc3ccccc23)CC1)c1cccc2[nH]cnc12		4.2 nM	0.29 nM	> 25 mg/kg		7.6 nM	
Nc1cccnc1C(=O)NCCCCN1CCN(c2nsc3ccccc23)CC1		3.8 nM	8.3 nM				
O=C(NCCCCN1CCN(c2nsc3ccccc23)CC1)c1[nH]nc2ccccc12	2.2 nM	3.6 nM	0.35 nM	< 25 mg/kg	31.8 mg/kg		
